Data set [1] deals with LLC-PK1 or MDCKII cell monolayer. Put plainly: MDR1 LLC-PK1 and BCRP MDCKII permeability assay: permeability coefficient (Papp). The format is in vitro ADME. The following applies: Papp, test concentration 1 μM, 2 hours incubation. An excerpt: (§1) Final organic concentration in the assay was 1%.
Data set [2] concerns the target full-length FLAG-tagged B-Raf(V600E) (Homo sapiens (Human), UniProt P15056, V600E). As to the kind of experiment: BRAF V600E enzyme assay (TR-FRET competitive displacement). The settings on record: averaged IC50; TR-FRET tracer displacement, 60 min. In kind it is binding. The method, boiled down:
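Displacement of 50 nM Tracer 1710 from 5 nM full-length N-terminally FLAG-tagged B-Raf(V600E), detected by TR-FRET with 0.5 nM Eu anti-FLAG antibody, in 25 mM HEPES pH 7.4, 10 mM MgCl2, 2% DMSO; 60 min at ~22 °C. Compounds 11-point, 3-fold from 10 μM; IC50 from 4-parameter fit at 50 POC.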

In another data set the test system is H1755 cells. As to the kind of experiment: Cellular phospho-ERK inhibition assay in H1755 cells. The format is cell-based. The settings on record: read-out: H1755 Cell IC50. The method, boiled down:
(§2)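 A375 (DMEM) or H1755 (RPMI) cells in 10% FBS treated 2 h at 37 °C with 9-point series, 66 pM–10 μM, 0.25% DMSO. Phospho-ERK1/2 (Thr202/Tyr204) measured by In Cell Western, normalised to GAPDH and to DMSO and 10 μM binimetinib controls; IC50 by 4-parameter fit.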

In a further data set the test system is A375 cells. As to the kind of experiment: Cellular phospho-ERK inhibition assay in A375 cells. The format is cell-based. The following applies: 2 hours treatment, read-out: A357 cell IC50. The method, boiled down:
as §2

Data set [3] deals with NCI-H1666 (BRAF G466V) cells. As to the kind of experiment: Proliferation assay (CellTiter-Glo) in NCI-H1666 cells. The format is cell-based. The settings on record: Homo sapiens, 3-5 day incubation. The method, then: (§3) The compounds of Example 13, Example 14 and Example 126 were evaluated in a proliferation assay in two mutant BRAF Class III cell lines: NCI-H1666 (BRAF^G466V) and WM3629 cells (BRAF^D594G/NRAS^G12D). NCI-H1666 cells were obtained from the American Type Culture Collection (ATCC, Rockville, MD) and WM3629 cells were obtained from Rockland Immunochemicals (Limerick, PA). Cells were maintained in RPMI growth medium containing 10% FBS.
(§4) Cells were harvested according to standard protocols, counted, and plated onto flat-bottom, 96-well tissue culture plates (Costar #3599) at 2000-5000 cells/well in 100 μL/well of growth medium containing 10% FBS. Cells were incubated at 37° C. with 5% CO2 overnight then treated with inhibitors prepared as a 9-point, 1:3.33 fold dilution series with final compound concentrations ranging from 66 pM-10 μM and a constant DMSO concentration of 0.25%. Control wells contained 0.25% DMSO alone. After a 3-5 day incubation at 37° C., 5% CO2, cell viability was determined by adding 100 μL CellTiter-Glo® Reagent (Promega) to each well and incubated for 15 minutes at room temperature. “Day 0” controls were determined by performing CellTiter-Glo© assay on DMSO control wells at the time of compound treatment (“Day 0” control=0 POC). Luminescence was measured on a Cytation 5 plate reader (BioTek) and values were converted to POC using the following equation:
(§5) [formula] • Where: • Xmax Average DMSO Controls • Xmin Average “Day 0” DMSO Controls • IC50 values were calculated using a 4-parameter fit in XLfit software and are shown in Table A2.

The nature of data set [4]: MDR1 LLC-PK1 and BCRP MDCKII permeability assay: permeability coefficient (Papp). The format is in vitro ADME.
Description: as §1

The target of data set [5] is BCRP (Homo sapiens (Human), UniProt Q9UNQ0). Put plainly: BCRP MDCKII permeability assay: efflux ratio. The format is in vitro ADME. The following applies: dog.
BCRP (Homo sapiens (Human), UniProt Q9UNQ0), sequence (Q9UNQ0 whole entry): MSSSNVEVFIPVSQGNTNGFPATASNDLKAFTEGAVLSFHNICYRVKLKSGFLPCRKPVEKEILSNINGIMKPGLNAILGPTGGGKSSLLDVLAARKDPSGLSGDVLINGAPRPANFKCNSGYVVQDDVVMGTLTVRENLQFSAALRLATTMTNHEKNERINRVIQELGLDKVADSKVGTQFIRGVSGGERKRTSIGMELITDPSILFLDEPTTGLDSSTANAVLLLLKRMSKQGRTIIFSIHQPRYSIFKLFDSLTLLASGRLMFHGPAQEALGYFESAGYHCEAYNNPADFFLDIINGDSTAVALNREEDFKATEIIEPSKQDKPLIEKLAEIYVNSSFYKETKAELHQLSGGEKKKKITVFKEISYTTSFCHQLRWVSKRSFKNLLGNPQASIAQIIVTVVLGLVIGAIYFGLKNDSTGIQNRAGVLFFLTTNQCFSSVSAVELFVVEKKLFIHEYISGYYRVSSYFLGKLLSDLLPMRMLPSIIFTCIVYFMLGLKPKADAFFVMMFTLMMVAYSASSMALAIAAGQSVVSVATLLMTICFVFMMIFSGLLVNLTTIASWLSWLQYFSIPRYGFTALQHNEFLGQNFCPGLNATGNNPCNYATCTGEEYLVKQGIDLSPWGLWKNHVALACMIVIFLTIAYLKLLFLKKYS
Another data set addresses P-gp (MDR1) (Homo sapiens (Human), UniProt P08183). As to the kind of experiment: MDR1 LLC-PK1 permeability assay: efflux ratio. In kind it is in vitro ADME. The following applies: pig.
Description: as §1

In data set [6] the test system is WM3629 cells (BRAF D594G/NRAS G12D). Put plainly: Cellular phospho-ERK inhibition assay in WM3629 cells. The settings on record: 1 hour treatment, read-out: IC50 WM3629 pERK. The format is cell-based. The method, then: (§6) The compounds of Example 13, Example 14 and Example 126 were evaluated in a phospho-ERK assay in two mutant BRAF Class III cell lines: NCI-H1666 (BRAF^G466V) and WM3629 cells (BRAF^D594G/NRAS^G12D). NCI-H1666 cells were obtained from the American Type Culture Collection (ATCC, Rockville, MD) and WM3629 cells were obtained from Rockland Immunochemicals (Limerick, PA). Cells were maintained in RPMI growth medium containing 10% FBS.
(§7) Cells were harvested according to standard protocols, counted, and plated onto flat-bottom, 96-well tissue culture plates (Costar #3599) at 2.5×10^4 cells/well in 100 μL/well of growth medium containing 10% FBS. After an overnight incubation at 37° C. with 5% CO2 cells were treated for 1 hour at 37° C., 5% CO2 with inhibitors prepared as a 9-point, 1:3.33 fold dilution series with final compound concentrations ranging from 66 pM-10 μM and a constant DMSO concentration of 0.25%. Control wells contained either 0.25% DMSO alone (uninhibited control) or 10 μM binimetinib (complete inhibition control). The levels of phosphorylated ERK were determined using an In Cell Western protocol: following compound incubation, growth medium was discarded, and cells were fixed with 0.4% formaldehyde in PBS for 20 minutes at room temperature. Cells were permeabilized with 100% methanol for 10 minutes at room temperature. Plates were washed with PBS containing 0.05% Tween-20 and blocked for 1 hour at room temperature with LI-COR Blocking Buffer (LI-COR Biosciences; Cat. #927-40000). Plates were then incubated for 2 hours at room temperature with 50 μL of a 1:400 dilution of anti-phospho-ERK1/2 (Thr202/Tyr204) (Cell Signaling; Cat. #9101) and a 1:1000 dilution of anti-GAPDH (Millipore; Cat. #MAB374) in LI-COR blocking buffer containing 0.05% Tween-20. […] Plates were analyzed by reading on an Odyssey CLx infrared scanner. […]
(§8) [formula] • Where: • Xmax d Average Uninhibited Controls • Xmin Average Complete Inhibition Controls • IC50 values were then calculated using a 4-parameter fit in XLfit software and are shown in Table A2.

Data set [7] has the same test system. Put plainly: Proliferation assay (CellTiter-Glo) in WM3629 cells. The format is cell-based. The settings on record: 3-5 day incubation. The method, then:
as §3, §4, §5

For data set [8], the system named is NCI-H1666 (BRAF G466V) cells. Put plainly: Cellular phospho-ERK inhibition assay in NCI-H1666 cells. In kind it is cell-based. The settings on record: Homo sapiens, 1 hour treatment, read-out: IC50 NCI-H1666 pERK. The method, then: as §6, §7, §8
Data set [9] is described as follows: PK (free brain-to-free plasma ratio) (mouse). The format is in vivo. The following applies: male CD-1 mice, oral gavage 10 mg/kg, unbound brain-to-unbound plasma, read-out: B/P ratio (free). The method, then:
The ability of representative compounds to penetrate the BBB in mice was determined by evaluating the unbound brain-to-unbound plasma (also referred to as free brain-to-free plasma) concentration ratio in male CD-1 mice.
Brain compound levels were generated from oral mouse PK dosing with typical sampling times of 2, 4, 8, 12 and 24 hours post oral gavage dosing at 10 mg/kg. Brain samples were stored at −20±5° C. prior to analysis. Concentrations of test compound in mouse brain homogenate were determined by liquid chromatography tandem mass spectrometry (LC-MS/MS) following protein precipitation with acetonitrile. A 12-point calibration curve, ranging from 0.5 to 10,000 ng/mL, was prepared in duplicate. A solution of 400 μg/mL of test compound in dimethyl sulfoxide (DMSO) was serially diluted (3-fold) in 100% DMSO, and then 2.5 μL of each standard solution was added to 100 μL of naïve male CD-1 mice brain homogenate. To mimic the extraction in the standard curve, 2.5 μL of DMSO was added to all test samples. Both calibration and test brain homogenate samples were spiked with 10 μL of an IS (1 μg/mL of a structural analog). Brain homogenate was generated by adding 0.75 mL of 4:1 water:MeOH to each brain sample followed by homogenization for 1 minute with bead beater tubes a 6 m/s using an MP Fast Prep-24®. Proteins were precipitated from 100 μL of brain homogenate sample by the addition of 300 μL of acetonitrile. Samples were vortex-mixed for 5 minutes and spun in an Allegra X-12R centrifuge (Beckman Coulter, Fullerton, CA; SX4750A rotor) for 15 min at approximately 1,500×g at 4° C. A 100 μL aliquot of each supernatant was transferred via a 550 μL Personal Pipettor (Apricot Designs, Monrovia, CA) to 96-well plates and diluted 1:1 with HPLC grade water. The resulting plates were sealed with aluminum for LC-MS/MS analysis.
Brain-to-plasma ratios were calculated using the concentration of compound measured in the brain divided by the concentration of compound measured in the plasma. Brain-to-plasma ratios were always generated from a single animal and time point. Free brain-to-free plasma ratios were calculated by multiplying the brain-to-plasma ratio by the in vitro brain homogenate free fraction divided by the in vitro plasma free fraction using the following equation: (B/P)*(Bfu/Pfu). Table C provides the free brain-to-free plasma ratios of compounds disclosed herein.

The subject of data set [10] is BCRP. The settings on record: reported, Mittapalli et al.; cited from earlier work.
The mark [11] stands for this setting: Homo sapiens, NCI-H1755, 2 hours treatment.
[12] abbreviates: Homo sapiens, A-375, A375 cells (head prints A357).

Molecules are shown by their SMILES. Where two headings read alike, the source gives them in different places. Where only a bound is given, the exact number is not on record here.

full-length FLAG-tagged B-Raf(V600E), sequence (P15056 whole entry V600E): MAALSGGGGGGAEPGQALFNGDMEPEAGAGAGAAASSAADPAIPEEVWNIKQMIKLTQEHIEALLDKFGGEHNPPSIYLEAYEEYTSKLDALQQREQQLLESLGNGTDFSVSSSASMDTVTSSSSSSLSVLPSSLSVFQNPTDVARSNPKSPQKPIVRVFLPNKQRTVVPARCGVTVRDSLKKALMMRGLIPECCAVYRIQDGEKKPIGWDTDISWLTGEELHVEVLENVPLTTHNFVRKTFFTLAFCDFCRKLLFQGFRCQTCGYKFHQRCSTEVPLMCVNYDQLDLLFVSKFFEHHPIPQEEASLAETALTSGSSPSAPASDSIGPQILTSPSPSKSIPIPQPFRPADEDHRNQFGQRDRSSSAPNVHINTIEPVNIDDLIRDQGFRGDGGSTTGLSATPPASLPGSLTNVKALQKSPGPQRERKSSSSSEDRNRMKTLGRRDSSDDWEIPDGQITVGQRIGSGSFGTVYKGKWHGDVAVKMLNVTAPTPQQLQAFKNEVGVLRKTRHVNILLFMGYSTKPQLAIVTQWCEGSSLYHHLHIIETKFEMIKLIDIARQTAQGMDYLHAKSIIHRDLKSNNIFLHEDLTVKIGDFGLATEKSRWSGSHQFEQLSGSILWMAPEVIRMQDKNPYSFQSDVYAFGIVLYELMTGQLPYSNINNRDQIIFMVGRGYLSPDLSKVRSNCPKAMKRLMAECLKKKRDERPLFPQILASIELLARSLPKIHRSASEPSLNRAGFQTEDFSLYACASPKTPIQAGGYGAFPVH
P-gp (MDR1), sequence (P08183 whole entry, species assumed): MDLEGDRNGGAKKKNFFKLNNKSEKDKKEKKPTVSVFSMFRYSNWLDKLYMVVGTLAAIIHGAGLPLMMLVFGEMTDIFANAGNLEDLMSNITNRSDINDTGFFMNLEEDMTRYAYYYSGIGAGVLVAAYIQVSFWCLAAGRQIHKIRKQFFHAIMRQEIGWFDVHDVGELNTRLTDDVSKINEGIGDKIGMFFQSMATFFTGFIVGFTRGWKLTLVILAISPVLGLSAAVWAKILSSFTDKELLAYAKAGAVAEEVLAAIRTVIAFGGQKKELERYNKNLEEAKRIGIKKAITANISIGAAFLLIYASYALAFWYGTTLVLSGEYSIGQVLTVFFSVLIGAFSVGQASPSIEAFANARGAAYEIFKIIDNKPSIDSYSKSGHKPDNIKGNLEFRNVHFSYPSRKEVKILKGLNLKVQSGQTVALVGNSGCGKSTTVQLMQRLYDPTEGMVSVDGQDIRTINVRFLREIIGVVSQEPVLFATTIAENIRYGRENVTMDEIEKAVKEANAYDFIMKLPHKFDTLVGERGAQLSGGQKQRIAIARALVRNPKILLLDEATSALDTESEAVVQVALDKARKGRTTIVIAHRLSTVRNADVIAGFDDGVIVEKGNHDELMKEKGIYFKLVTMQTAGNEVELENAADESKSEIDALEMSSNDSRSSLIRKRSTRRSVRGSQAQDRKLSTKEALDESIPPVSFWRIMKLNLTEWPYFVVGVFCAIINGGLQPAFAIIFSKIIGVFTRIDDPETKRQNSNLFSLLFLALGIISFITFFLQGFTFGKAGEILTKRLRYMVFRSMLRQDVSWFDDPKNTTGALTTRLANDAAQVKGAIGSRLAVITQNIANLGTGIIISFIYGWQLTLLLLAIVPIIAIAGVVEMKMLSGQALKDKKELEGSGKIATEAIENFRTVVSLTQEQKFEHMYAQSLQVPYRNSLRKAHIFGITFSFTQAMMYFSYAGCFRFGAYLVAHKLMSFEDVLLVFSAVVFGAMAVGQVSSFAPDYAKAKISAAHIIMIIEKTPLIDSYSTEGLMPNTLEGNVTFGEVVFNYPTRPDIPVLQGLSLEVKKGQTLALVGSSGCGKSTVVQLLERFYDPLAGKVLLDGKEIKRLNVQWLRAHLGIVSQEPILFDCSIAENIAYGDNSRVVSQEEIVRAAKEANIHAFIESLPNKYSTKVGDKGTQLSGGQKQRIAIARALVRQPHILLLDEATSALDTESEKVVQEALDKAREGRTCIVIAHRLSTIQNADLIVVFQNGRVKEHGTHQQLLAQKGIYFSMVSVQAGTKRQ

Regarding `CN(C)S(=O)(=O)Nc1ccc(F)c(Oc2ccc3ncn(C)c(=O)c3c2F)c1Cl` [Example 111, N-(2-chloro-4-fluoro-3-((5-fluoro-3-methyl-4-oxo-3,4-dihydroquinazolin-6-yl)oxy)phenyl)-(N,N-dimethyl)-sulfamide], the Permeability in [1] is 29 *10^−6 cm/s. Also, the IC50 amounted to 10 nM in data set [2], 80 nM with H1755 cells (2 hours treatment) and 12 nM in the data set with A375 cells (A375 cells (head prints A357)).
Taken in the same sequence, the figures for `CCN(C)S(=O)(=O)Nc1ccc(F)c(Oc2ccc3ncn(C)c(=O)c3c2F)c1Cl` [Example 112, N-(2-chloro-4-fluoro-3-((5-fluoro-3-methyl-4-oxo-3,4-dihydroquinazolin-6-yl)oxy)phenyl)-(N-ethyl-N-methyl)-sulfamide] were 28 *10^−6 cm/s, 20 nM, 105 nM and 24 nM.
In the case of `Cn1cnc2ccc(Nc3c(F)ccc(NS(=O)(=O)N4CC(F)C4)c3Cl)c(Cl)c2c1=O` [Example 126, N-(2-chloro-3-((5-chloro-3-methyl-4-oxo-3,4-dihydroquinazolin-6-yl)amino)-4-fluorophenyl)-3-fluoroazetidine-1-sulfonamide], the IC50 in data set [3] was 390 nM; in data set [6] it was 1.4 nM; in data set [7], greater than 10000 nM; in data set [8], 15 nM; in the data set with H1755 cells (setting [11]), 26 nM; with A375 cells (setting [12]), 2 nM. In data set [4], this compound yielded a Papp at 2 h, 1 µM of 44 ×10⁻⁶ cm/s. In addition, the figures for the efflux ratio at 2 h, 1 µM on BCRP [5] and at P-gp (MDR1) were 4.2 and 2.1, respectively.
For the compound `COC1CN(S(=O)(=O)Nc2ccc(F)c(Nc3ccc4ncn(C)c(=O)c4c3F)c2Cl)C1` [Example 130, N-(2-chloro-4-fluoro-3-((5-fluoro-3-methyl-4-oxo-3,4-dihydroquinazolin-6-yl)amino)phenyl)-3-methoxyazetidine-1-sulfonamide], the apparent permeability coefficient (Papp) at 2 h, 1 µM in data set [4] worked out at 30 ×10⁻⁶ cm/s. The IC50 in data set [2] came out at 11 nM; with H1755 cells (setting [11]), 38 nM; with A375 cells (setting [12]) it was 7 nM. The efflux ratio at 2 h, 1 µM on BCRP [5] came out at 7.6; on P-gp (MDR1) it was 2.3. In [9], the Kp was in the range of 0.12 to 0.16.
For the compound `COCC1CN(S(=O)(=O)Nc2ccc(F)c(Nc3ccc4ncn(C)c(=O)c4c3C)c2Cl)C1` [Example 131, N-(2-chloro-3-((3,5-dimethyl-4-oxo-3,4-dihydroquinazolin-6-yl)amino)-4-fluorophenyl)-3-(methoxymethyl)azetidine-1-sulfonamide], the Papp at 2 h, 1 µM in [4] was 55 ×10⁻⁶ cm/s. Also, the IC50 in [2] is 16 nM; with H1755 cells (setting [11]), 38 nM; in the data set on A375 cells (setting [12]) it was 13 nM. The values for the efflux ratio at 2 h, 1 µM at BCRP [5] and on P-gp (MDR1) were 1.7 and 2.1, respectively. Also, the Kp in data set [9] was 0.3 to 0.5.
Take `CC(C)(C)c1nc(-c2cccc(NS(=O)(=O)c3c(F)cccc3F)c2F)c(-c2ccnc(N)n2)s1` [dabrafenib]: the BCRP efflux ratio in the data set on BCRP [10] is listed as 21.0.
With `CCCS(=O)(=O)Nc1ccc(F)c(C(=O)c2c[nH]c3ncc(-c4ccc(Cl)cc4)cc23)c1F` [vemurafenib], the BCRP efflux ratio in the data set with BCRP [10] is 495.

The values are drawn from US12303509B2, “Compounds for the treatment of BRAF-associated diseases and disorders” (Pfizer Inc., priority 2020, dated 2025).
